Experimental findings from patent publication US20140004458A1, “MAGENTA TONER” (CANON KABUSHIKI KAISHA, priority 2011, published 2014) are described below.

Data set [1] in a line: evaluation of lightness and saturation of image sample (L*a*b* chromaticity). The format is physicochemical. The note with it: toner using the compound, in words. The procedure: Image samples were formed using the resulting toners. The lightness and saturation of the samples were evaluated. To compare image characteristics, an image output test was made using a modified apparatus of LBP-5300 (manufactured by CANON KABUSHIKI KAISHA) as an image forming apparatus. The modification was performed in such a manner that a developing blade in a process cartridge was replaced with a stainless blade having a thickness of […] and that a blade bias of −200 V against a developing bias that was applied to a developing roller serving as a toner support was applicable.
With respect to each of the resulting image samples, chromaticity (L*, a*, b*) in the L*a*b* color system was measured with a reflection densitometer (Model: SpectroLino, manufactured by GretagMacbeth).
In the L*a*b* space, color coordinates indicating the magenta color of the Japan Color 2001 are defined as X (L1, a1, b1). In the L*a*b* space, coordinates of an intersection point of a plane including the L* axis and the coordinates X and the a*b* curve of the image sample obtained by the chromaticity measurement are defined as Y (L2, a2, b2). The a*b* curve is obtained by forming a plurality of image samples having different toner adhesion amounts. The difference Δc (=c2−c1) between a c* value [=c2={(a2^2+b2^2)}^1/2] at the intersection point Y and a c* value [=c1={(a1^2+b1^2)}^1/2] at the coordinates X was calculated. The difference ΔL (=L2−L1) between an L* value (=L2) at the intersection point Y and an L* value (=L1) at the coordinates X was calculated.
The lightness and saturation were evaluated on the basis of the following evaluation criteria.
A: Δc is 0 or more, and ΔL is 0 or more; B: Δc is −5 or more, and ΔL is −5 or more, excluding the case of Class A described above; and C: Δc is less than −5, or ΔL is less than −5.
In the case where Δc was −5 or more and ΔL was −5 or more, the sample was evaluated to have satisfactory lightness and saturation.

Data set [2] can be described thus: evaluation of lightfastness of image sample (Atlas Weather-Ometer Ci4000). The format is physicochemical. The note with it: toner using the compound, in words; for lightfastness: satisfactory = ΔE less than 10 after 60 hours. On the procedure: The image samples were placed in Atlas Weather-Ometer Ci4000 (from Toyo Seiki Seisaku-sho, Ltd.) and exposed for 60 hours. In this case, measurement conditions were as follows: black panel temperature: 50° C., chamber temperature: 40° C., relative humidity: 70%, and irradiance: 0.39 W/m^2 (340 nm).
The chromaticity (L*, a*, b*) in the L*a*b* color system was measured with the reflection densitometer (Model: SpectroLino, manufactured by GretagMacbeth) before and after the exposure test. The color difference (ΔE) was calculated from the following expression on the basis of measurements of the color characteristics:
Color difference(ΔE)={(a*before test−a*after test)^2+(b*before test−b*after test)^2+(L*before test−L*after test)^2}^1/2
In the case where ΔE was less than 10 after 60 hours, the sample was evaluated to have satisfactory lightfastness.

Structures are written as SMILES.

Regarding `CCN(CC)c1ccc2c(c1)Oc1cc(N(CC)CC)ccc1C21OC(=O)c2ccccc21` [(1)], in data set [1], the lightness entry was “satisfactory”. Also, in data set [2], the “balance between the saturation and lightfastness” value is reported as “not provided”.

For `Cc1ccc(Nc2ccc3c4c(cc(=O)n3C)-c3ccccc3C(=O)c24)cc1` [(2)], the lightness and saturation entry in data set [1] is listed as “not sufficient”. In data set [2], the lightfastness result is listed as “satisfactory”.

On to `Cc1ccc(/N=N/c2c(O)c(C(=O)O)cc3ccccc23)c(S(=O)(=O)O)c1` [(3)], for which the lightness and saturation result in data set [1] was “not sufficient”. Moreover, the lightfastness result in data set [2] is on record as “satisfactory”.
